In series [1] the test system is mouse model of generalised seizure. The series can be described thus: mini-MEST (maximal electroshock seizure threshold test, minimal sample sizes) in the mouse. The settings on record: for change in vivo at 5 mg/kg / change in vivo at 50 mg/kg: Mus musculus, ip, change in CC50; for change in vivo at 5 mg/kg: 0.25 h, read-out: % change from vehicle, 5 mg/kg i.p., 15 min post dose; for change in vivo at 50 mg/kg: 0.5 h, read-out: % change from vehicle, 50 mg/kg i.p., 30 min post dose. (The maximal electroshock test induces tonic seizures with an electrical stimulus.)
Description: In the MEST test the ability of a drug to alter the seizure threshold current required to induce hind limb tonic extensor convulsions is measured according to an “up and down” method of shock titration (Kimball et al., 1957).
The ability of a test compound to alter the stimulus intensity, expressed as current (mA), required to induce the presence of tonic hind limb extensor convulsions, is assessed in the MEST.
Naïve mice were acclimatised to the procedure room in their home cages for up to 7 days, with food and water available ad libitum.
All animals were weighed at the beginning of the study and randomly assigned to treatment groups based on a mean distribution of body weight across groups.
The first animal within a treatment group was given a shock at the expected or estimated CC50 current. For subsequent animals, the current was lowered or raised depending on the convulsions outcome from the preceding animal in log scale intervals.
Data generated from each treatment group were used to calculate the CC50 ±SEM values for the treatment group.
The test compounds used were 1, 2, 3, 4 and 5. Test compounds were administered at 5-50 mg/kg (i.p.) in a 1:2:17 ethanol:solutol:saline formulation.
The data for each treatment group were recorded as the number of +'s and 0's at each current level employed and this information is then used to calculate the CC50 value (current required for 50% of the animals to show seizure behaviour) ±standard error.
Test compound effects were also calculated as percentage change in CC50 from the vehicle control group.
The test compounds used were 12, 42 and 43. Test compounds were administered at 5-50 mg/kg (i.p.) in a 1:2:17 ethanol:solutol:saline formulation.
The test compounds used were 6, 13, 22, 26, 28, 33, 38 and 46. Test compounds were administered at 5-50 mg/kg (i.p.) in a 1:2:17 ethanol:solutol:saline formulation.
The test compound used was 36. Test compound was administered at 5 and 50 mg/kg (i.p.) in a 1:2:17 ethanol:solutol:saline formulation.

The test system is the same in series [2]. The series can be described thus: MEST (maximal electroshock seizure threshold) test in the mouse. The settings on record: for % change from vehicle: change in CC50. How it is done:
The efficacy of the cannabinoid derivative of 1 was tested in a mouse model of generalised seizure, the maximal electroshock seizure threshold (MEST) test.
The protocol according to Example 2 was followed, with the current lowered or raised in intervals of 5 mA instead of log scale intervals.

[3] abbreviates: 5 mg/kg i.p., test 15 min post dose.
[4] abbreviates: 50 mg/kg i.p., test 30 min post dose.

Some results are limits rather than exact numbers.

Turning to `C=C(C)[C@@H]1CCC(C)=C[C@H]1c1c(O)cc(-c2ccc(OC)nc2)cc1O` [Compound 12, (1′R,2′R)-4-(6-Methoxypyridin-3-yl)-5′-methyl-2′-(prop-1-en-2-yl)-1′,2′,3′,4′-tetrahydro-[1,1′-biphenyl]-2,6-diol], the “CC50 +/− SEM” value in series [1] (setting [3]) was 25.0 mA; in series [1] (setting [4]), above 131 mA. Besides, the convulsions observed entry in series [1] (50 mg/kg, CC50 not reached) is “no animals had any convulsions”. Also, in series [1], the change in vivo at 5 mg/kg is -6%. Also, in series [1], the change in vivo at 50 mg/kg is above 394%.

As to `CN1C(=O)CN=C(c2ccccc2)c2cc(Cl)ccc21` [Diazepam, diazepam, reference compound], the “% change from vehicle” value in series [2] (diazepam 2.5 mg/kg i.p., 30 min post dose) is given as 224%.

Consider `C=C(C)[C@@H]1CCC(C)=C[C@H]1c1c(O)cc(-c2cn(C)cn2)cc1O` [Compound 28, (1′R,2′R)-5′-Methyl-4-(1-methyl-1H-imidazol-4-yl)-2′-(prop-1-en-2-yl)-1′,2′,3′,4′-tetrahydro-[1,1′-biphenyl]-2,6-diol], for which the “CC50 +/− SEM” value in series [1] (setting [3]) is reported as 25.0 mA. Further, the “CC50 +/− SEM” value in series [1] (setting [4]) is given as 35.5 mA. Besides, in series [1], the change in vivo at 5 mg/kg was found to be 11% and the change in vivo at 50 mg/kg amounted to 58%.

`C=C(C)[C@@H]1CCC(C)=C[C@H]1c1c(O)cc(-c2cnn(CC(C)(C)O)c2)cc1O` [Compound 1, (1′R,2′R)-4-(1-(2-Hydroxy-2-methylpropyl)-1H-pyrazol-4-yl)-5′-methyl-2′-(prop-1-en-2-yl)-1′,2′,3′,4′-tetrahydro-[1,1′-biphenyl]-2,6-diol]: the “% change from vehicle” value came to 10% in series [2] (1 mg/kg i.p., 15 min post dose); 21% in series [2] (5 mg/kg i.p., 15 min post dose); 213% in series [2] (50 mg/kg i.p., 30 min post dose). The “CC50 +/− SEM” value in series [2] (1 mg/kg i.p., test 15 min post dose) turned out to be 28.5 mA; in series [2] (setting [3]) it was 31.5 mA; in series [2] (setting [4]), 81.5 mA; in series [1] (setting [4]), 119.5 mA. For the same molecule, in series [1], the change in vivo at 50 mg/kg was 388%.

As to `CC1=C[C@@H](c2c(O)cc(-c3cnn(C)c3)cc2O)[C@H](C(C)C)CC1` [Compound 36, (1′S,2′S)-2′-Isopropyl-5′-methyl-4-(1-methyl-1H-pyrazol-4-yl)-1′,2′,3′,4′-tetrahydro-[1,1′-biphenyl]-2,6-diol], the “CC50 +/− SEM” value was determined as 29.0 mA in series [1] (setting [3]) and 70.5 mA in series [1] (setting [4]). Also, the “CC50 value compared to vehicle” value in series [1] (5 and 50 mg/kg i.p., between 15 and 30 minutes before the test) is reported as “statistically significant”. Further, the change in vivo at 5 mg/kg in series [1] stood at 14%. Further, in series [1], the change in vivo at 50 mg/kg was 176%.

`C=C(C)[C@@H]1CCC(C)=C[C@H]1c1c(O)cc(-c2cnn(CCO)c2)cc1O` [Compound 2, (1′R,2′R)-4-(1-(2-Hydroxyethyl)-1H-pyrazol-4-yl)-5′-methyl-2′-(prop-1-en-2-yl)-1′,2′,3′,4′-tetrahydro-[1,1′-biphenyl]-2,6-diol]: the entries for the “CC50 +/− SEM” value in series [1] (setting [3]) and in series [1] (setting [4]) were 32.5 mA and below 35.0 mA, respectively. Also, the change in vivo at 5 mg/kg in series [1] was found to be 30%. For the same molecule, the change in vivo at 50 mg/kg in series [1] was below 40%.

For `C=C(C)[C@@H]1CCC(C)=C[C@H]1c1c(O)cc(-c2cnn(C3COC3)c2)cc1O` [Compound 38, (1′R,2′R)-5′-Methyl-4-(1-(oxetan-3-yl)-1H-pyrazol-4-yl)-2′-(prop-1-en-2-yl)-11,2′,3′,4′-tetrahydro-[1, 1′-biphenyl]-2,6-diol], in series [1] (setting [4]), the “CC50 +/− SEM” value is reported as 79.5 mA. Also, the change in vivo at 50 mg/kg in series [1] was determined as 200%.

Turning to `C=C(C)[C@@H]1CCC(C)=C[C@H]1c1c(O)cc(-c2cnn(CCO)c2C)cc1O` [Compound 5, (1′R,2′R)-4-(1-(2-Hydroxyethyl)-5-methyl-1H-pyrazol-4-yl)-5′-methyl-2′-(prop-1-en-2-yl)-1′,2′,3′,4′-tetrahydro-[1,1′-biphenyl]-2,6-diol], in series [1] (setting [4]), the “CC50 +/− SEM” value was found to be 60.5 mA. Besides, in series [1], the change in vivo at 50 mg/kg amounted to 169%.

For the molecule `C=C(C)[C@@H]1CCC(C)=C[C@H]1c1c(O)cc(-c2cnn(CCN3CCOCC3)c2)cc1O` [Compound 13, (1′R,2′R)-5′-Methyl-4-(1-(2-morpholinoethyl)-1H-pyrazol-4-yl)-2′-(prop-1-en-2-yl)-1′,2′,3′,4′-tetrahydro-[1,1′-biphenyl]-2,6-diol], the “CC50 +/− SEM” value is 25.0 mA in series [1] (setting [3]) and 37.2 mA in series [1] (setting [4]). Besides, in series [1], the change in vivo at 5 mg/kg amounted to 6%. Besides, the change in vivo at 50 mg/kg in series [1] was 58%.

For `C=C(C)[C@@H]1CCC(C)=C[C@H]1c1c(O)cc(-c2cnn(CC(C)O)c2)cc1O` (stereo partly drawn) [Compound 22, (1′R,2′R)-4-(1-(2-Hydroxypropyl)-1H-pyrazol-4-yl)-5′-methyl-2′-(prop-1-en-2-yl)-1′,2′,3′,4′-tetrahydro-[1,1′-biphenyl]-2,6-diol], the “CC50 +/− SEM” value in series [1] (setting [3]) is given as 33.0 mA. Besides, the “CC50 +/− SEM” value in series [1] (setting [4]) was found to be 66.0 mA. Also, in series [1], the change in vivo at 5 mg/kg was found to be 25% and the change in vivo at 50 mg/kg was found to be 149%.

`C=C(C)[C@@H]1CCC(C)=C[C@H]1c1c(O)cc(N(C)c2cccnc2)cc1O` [Compound 46, (1′R,2′R)-5′-Methyl-4-(methyl(pyridin-3-yl)amino)-2′-(prop-1-en-2-yl)-1′,2′,3′,4′-tetrahydro-[1, 1′-biphenyl]-2,6-diol]: in series [1] (setting [4]), the “CC50 +/− SEM” value is reported as 61.5 mA. Further, the change in vivo at 50 mg/kg in series [1] stood at 132%.

`C=C(C)[C@@H]1CCC(C)=C[C@H]1c1c(O)cc(-c2cn(C)nc2C)cc1O` [Compound 3, (1′R,2′R)-4-(1,3-Dimethyl-1H-pyrazol-4-yl)-5′-methyl-2′-(prop-1-en-2-yl)-1′,2′,3′,4′-tetrahydro-[1,1′-biphenyl]-2,6-diol]: the “CC50 +/− SEM” value in series [1] (setting [3]) is 27.5 mA; in series [1] (setting [4]), 62.5 mA. The change in vivo at 5 mg/kg in series [1] was 10%. In addition, in series [1], the change in vivo at 50 mg/kg worked out at 150%.

Consider `C=C(C)[C@@H]1CCC(C)=C[C@H]1c1c(O)cc(-n2cnc(C)n2)cc1O` [Compound 26, (1′R,2′R)-5′-Methyl-4-(3-methyl-1H-1,2,4-triazol-1-yl)-2′-(prop-1-en-2-yl)-1′,2′,3′,4′-tetrahydro-[1,1′-biphenyl]-2,6-diol], for which the “CC50 +/− SEM” value in series [1] (setting [4]) came out at 75.0 mA. For the same molecule, in series [1], the change in vivo at 50 mg/kg was 233%.

On to `C=C(C)[C@@H]1CCC(C)=C[C@H]1c1c(O)cc(-c2ncn(C)n2)cc1O` [Compound 33, (1′R,2′R)-5′-Methyl-4-(1-methyl-1H-1,2,4-triazol-3-yl)-2′-(prop-1-en-2-yl)-1′,2′,3′,4′-tetrahydro-[1, 1′-biphenyl]-2,6-diol], for which the “CC50 +/− SEM” value in series [1] (setting [4]) is given as 53.5 mA. In addition, the change in vivo at 50 mg/kg in series [1] was 138%.

Regarding `C=C(C)[C@@H]1CCC(C)=C[C@H]1c1c(O)cc(-c2cccnc2OC)cc1O` [Compound 43, (1′R,2′R)-4-(2-methoxypyridin-3-yl)-5′-methyl-2′-(prop-1-en-2-yl)-1′,2′,3′,4′-tetrahydro-[1,1′-biphenyl]-2,6-diol], in series [1] (setting [4]), the “CC50 +/− SEM” value is reported as 58.2 mA. Further, the change in vivo at 50 mg/kg in series [1] came to 96%.

For `C=C(C)[C@@H]1CCC(C)=C[C@H]1c1c(O)cc(-c2cn(C)nn2)cc1O` [Compound 4, (1′R,2′R)-5′-Methyl-4-(1-methyl-1H-1,2,3-triazol-4-yl)-2′-(prop-1-en-2-yl)-1′,2′,3′,4′-tetrahydro-[1, 1′-biphenyl]-2,6-diol], the “CC50 +/− SEM” value in series [1] (setting [3]) was found to be 28.3 mA. Moreover, in series [1] (setting [4]), the “CC50 +/− SEM” value came out at 70.5 mA. Moreover, in series [1], the change in vivo at 5 mg/kg was 26% and the change in vivo at 50 mg/kg was 213%.

On to `C=C(C)[C@@H]1CCC(C)=C[C@H]1c1c(O)cc(-c2ccn(C)c(=O)c2)cc1O` [Compound 42, 4-((1′R,2′R)-2,6-dihydroxy-5′-methyl-2′-(prop-1-en-2-yl)-1′,2′,3′,4′-tetrahydro-[1,1′-biphenyl]-4-yl)-1-methylpyridin-2(1H)-one], for which the “CC50 +/− SEM” value in series [1] (setting [4]) was 67.5 mA. For the same molecule, the change in vivo at 50 mg/kg in series [1] worked out at 132%.

Regarding `C=C(C)[C@@H]1CCC(C)=C[C@H]1c1c(O)cc(-c2cnn(CCN(C)C)c2)cc1O` [Compound 6, (1′R,2′R)-4-(1-(2-(Dimethylamino)ethyl)-1H-pyrazol-4-yl)-5′-methyl-2′-(prop-1-en-2-yl)-1′,2′,3′,4′-tetrahydro-[1,1′-biphenyl]-2,6-diol], the “CC50 +/− SEM” value in series [1] (setting [4]) is listed as below 43 mA. The change in vivo at 50 mg/kg in series [1] was below 76%.

For the origin of these results see US20240025858A1, “CANNABINOID DERIVATIVES AS […] ACTIVE COMPOUNDS AND METHOD OF PREPARATION THEREOF” (GW Research Limited, priority 2020, published 2024).
